Measurements published in patent publication US9598463B2, “Mucin hypersecretion inhibitors and methods of use” (BIOMARCK PHARMACEUTICALS, LTD., priority 2005, dated 2017).

What was measured:
[1] = tested on: methacholine-induced mucin hypersecretion; assay: Duration of action of test peptides in a murine model of asthma; type: in vivo; details: Balb/C mice
Description: Experiments were designed to test whether or not the MANS peptide and other test peptides related thereto inhibit hypersecretion of mucin in murine airway in vivo. The ovalbumin-sensitized mouse model of allergic inflammation and asthma used in these studies was as described by Singer et al. (2004), supra. As a negative control, a control peptide containing an N-terminal myristoyl group and the same amino acids as MANS peptide but arranged in random order (i.e., the random N-terminal sequence, RNS, myristoyl-peptide 232) was tested alongside the proposed active peptides. BP2 mice, aged 6-8 wks, were immunized subcutaneously twice at weekly intervals with 1 μg of ovalbumin. After 14 days of sensitization, the animals were exposed to aerosolized ovalbumin, which causes a pronounced goblet cell hyperplasia after 72 hours. At the 72 hr time point, the secretagogue, methacholine ([…]) was delivered using a Buxco system nebulizer providing a fine aerosol for 90 seconds. Fifteen min prior to the secretagogue challenge, 50 μL of the test peptide, at 3 different concentrations (10 μM, 100 μM, or 140 μM), was administered by intratracheal route. The RNS peptide was tested at the highest dose level only (50 μL of 140 μM solution). […] Each experiment was carried out in 6 mice per point, and each set of experiments was repeated 3 times. To test strain-to-strain variations, the above experiment was repeated in Balb/C mice under similar protocol. Both stimulated and unstimulated mucin secretion, in mice treated with […] sodium acetate (data not shown), were identical to saline control. Following the methacholine challenge, the animals were sacrificed and bronchoalveolar lavage (BAL) performed on 6 animals per group for analysis of secreted mucin.
Mice were sacrificed by cervical dislocation, followed by rapid exposure of the trachea and insertion of a cannula through a small incision. Bronchoalveolar lavage (BAL) fluid was collected with 0.5 ml followed by 3×1 ml PBS containing PMSF (5 mM), EDTA (5 mM), and DTT (5 mM). BAL fluid was separated into cell-free and cell fractions via brief centrifugation prior to any analyses being performed. The cell-free supernatants were analyzed for the presence of mucin via an ELISA method using anti-mucin antibodies shown to react with mouse mucin. Specifically, a mouse anti-MUC5AC antibody that recognizes the carbohydrate portion of secreted mucin was used in these assays. Data generated from each BAL sample were normalized to total protein as determined by Bradford assay. Mucin content was expressed as the value obtained with the anti-mucin antibody minus that obtained with the non-immune control antibody. All ELISA data were statistically examined using a one-way ANOVA.
Experiments were designed to determine the duration of action of test peptides in a murine model of asthma. As described in Method 1A, Balb/C mice were immunized with ovalbumin. After 14 days, the animals were challenged with aerosolized ovalbumin. After 72 hours the secretagogue, methacholine was delivered by aerosolization. The test peptides ([…] of 100 µM solution) were administered by intratracheal route 30 min, 60 min, or 120 min prior to methacholine challenge. The animals were sacrificed and BAL performed for analysis of secreted mucin The results of this experiment are given in Table VI.

[2] = Stability of test peptides in human CF mucus (LC/MS/MS, first order half-life); type: in vitro ADME; details: cerebrospinal or other body fluid, pH 7, human CF mucus
Description: (§1) Various test peptides in human plasma, human BALF, and CF patient mucus were analyzed to determine the susceptability of the test peptide to proteolysis in the biological fluids. […] The samples were analyzed either on the same day as received or stored at −20° C. and analyzed within the following two days.
The frozen mucus (sputum) from a CF patient was thawed and mixed with 2 volumes of 75 mM sodium acetate buffer, pH 7 with the help of a glass tissue grinder, centrifuged at 10,000×g for 10 min at 4-8° C. The pellet was re-suspended in 1 volume of the acetate buffer and centrifuged. The two supernatants were combined and used as follows. The supernatant (450 μL) was spiked with 50 μL, of 0.5 mg/mL solution of the peptide in 75 mM sodium acetate buffer at pH 7.0 and processed and analyzed as described above.
(§2) All samples were analyzed using LC/MS/MS (MDS/SCIEX, API 4000 Model). Chromatography was performed using a Phenomenex Luna C18 column, while mass spectrometry was performed using positive ion electrospray ionization.
(§3) Calibration standards were analyzed by LCMS at concentrations of 0.100 μg/mL, 1.00 μg/mL, 10.0 μg/mL, and 100 μg/mL for each peptide, with the exception of the calibration standards for peptides myr-PEPTIDE 106, PEPTIDE 106, PEPTIDE 106-NH2, PEPTIDE 106, and cyclic peptide, cyc-PEPTIDE 106, in human mucus, which were analyzed at concentrations of 0.100 μg/mL, 1.00 μg/mL, 10.0 μg/mL, and 75 μg/mL. Standards were prepared in 1% human BALF, plasma, or mucus in 50/50 water/acetonitrile mixture containing 0.2% formic acid. The instrument response values for each set of standards were fit using a 1/(concentration)^2 linear least-squares line. Sample concentrations were calculated using the slope and intercept of this line. Concentrations outside of the calibration range were determined by extrapolating the calibration curve.
(§4) Watson fits the log transformed data with a least-squares line to determine parameters such as Cmax (maximum concentration), intercept, rate constant, slope, and T1/2 (half-life). The resulting kinetic parameters were based on the linear fit, not the actual concentration values.
(§5) Time-zero calibration standards in solution were not included as part of the kinetic profiles.

[3] = Stability of test peptides in human BALF (LC/MS/MS, first order half-life); type: in vitro ADME; details: cerebrospinal or other body fluid, human BALF from COPD patients, 1st experiment, read-out: BALF t1/2 (1st exp.) (converted)
Description: as §1
Samples of BALF collected from COPD patients were obtained and frozen. The BALF samples were thawed, mixed together and centrifuged at 10,000×g for 10 min at 4-8° C. The supernatant (0.9 mL) was spiked with 0.1 mL of 0.5 mg/mL solution of the peptide in 75 mM sodium acetate buffer at pH 7.0 and processed and analyzed as described above.
as §2, §3
Duplicate calibration standards were analyzed at a concentration of 50 μg/mL for each peptide. The instrument response values for each set of standards were fit through an intercept of 0 using an unweighted, linear least-squares line. Sample concentrations were calculated using the slope and intercept of this line.
For the analysis of peptide concentration in BALF samples, one 50 μg/mL calibration standard prepared in a mixture of BALF, water, acetonitrile, and formic acid was analyzed with each sample set.
as §4, §5

[4] = peptide intratracheal 30 min prior to methacholine challenge
[5] = peptide intratracheal 60 min prior to methacholine challenge
[6] = peptide intratracheal 120 min prior to methacholine challenge
[7] = 1st experiment, read-out: Mucus t1/2 (1st exp.) (converted)
[8] = 2nd experiment, read-out: Mucus t1/2 (2nd exp.) (converted)

Substance	Duration of action, mucin secretion (% of Control) [1, 4]	Duration of action, mucin secretion (% of Control) [1, 5]	Duration of action, mucin secretion (% of Control) [1, 6]	half-life [2, 7]	half-life [2, 8]	half-life [3]
Ac-GAQFSKTAAK-OH [Ac-peptide 106]	21 % of Control	72 % of Control	70 % of Control	33 min	28.2 min	113 min
H-GAQFSKTAAK-OH [peptide 106, GAQFSKTAAK]	23 % of Control	48 % of Control	57 % of Control	13.8 min	22.2 min	113 min
